Values quoted from earlier work, collected in patent publication US20200352905A1, “6-(2,4-DICHLOROPHENYL)-5-[4-[(3S)-1-(3-FLUOROPROPYL)PYRROLIDIN-3-YL]OXYPHENYL]-8,9-DIHYDRO-7H-BENZO[7]ANNULENE-2-CARBOXYLIC ACID FOR USE IN METASTATIC OR ADVANCED BREAST CANCER PATIENTS” (SANOFI, priority 2019, published 2020).

Experiments:
[1] = test system: CYP2C8; conditions: substrate dasabuvir; 200 mg QD (3 days) then BID (21 days); cited from earlier work
[2] = test system: CYP3A; conditions: victim Quetiapine; 200 mg TID (26 days); cited from earlier work

## NC(=O)N1c2ccccc2C=Cc2ccccc21 [Carbamazepine]
[1]
  Max % of AUC decrease or CL increase: 70.3%
[2]
  % of AUC decrease: 86.6%
  % oral CL increase: 643.1%
